Measured values reported in PubChem BioAssay (NCI).
Where “and” joins values, the source holds several entries; their conditions need not be identical. Identical values can stand only once.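 Following 48 hours of exposure in 96-well plates, responses at five concentrations were used to interpolate endpoints linearly. Here, GI50 denotes the concentration required for 50% inhibition of growth. TGI marks complete inhibition of growth.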

Key:
Assay in all cases: NCI tumour cell line growth inhibition, 48 h
[1] = tested on: 786-0 renal
[2] = tested on: A498 renal
[3] = tested on: A549 NSCLC
[4] = tested on: ACHN renal
[5] = tested on: BT-549 breast
[6] = tested on: CAKI-1 renal
[7] = tested on: CCRF-CEM leukemia
[8] = tested on: COLO 205 colon
[9] = tested on: DLD-1 colon
[10] = tested on: DMS 114 small cell lung
[11] = tested on: DMS 273 small cell lung
[12] = tested on: DU-145 prostate
[13] = tested on: EKVX NSCLC
[14] = tested on: HCC-2998 colon
[15] = tested on: HCT-116 colon
[16] = tested on: HCT-15 colon
[17] = tested on: HL-60(TB) leukemia
[18] = tested on: HOP-18 NSCLC
[19] = tested on: HOP-62 NSCLC
[20] = tested on: HOP-92 NSCLC
[21] = tested on: HS 578T breast
[22] = tested on: HT29 colon
[23] = tested on: IGROV1 ovarian
[24] = tested on: K-562 leukemia
[25] = tested on: KM12 colon
[26] = tested on: KM20L2 colon
[27] = tested on: LOX IMVI melanoma
[28] = tested on: LXFL 529 NSCLC
[29] = tested on: M14 melanoma
[30] = tested on: M19-MEL melanoma
[31] = tested on: MALME-3M melanoma
[32] = tested on: MCF7 breast
[33] = tested on: MDA-MB-231 breast
[34] = tested on: MDA-MB-435
[35] = tested on: MDA-N
[36] = tested on: MOLT-4 leukemia
[37] = tested on: NCI-H226 lung
[38] = tested on: NCI-H23 lung
[39] = tested on: NCI-H460 lung
[40] = tested on: NCI/ADR-RES ovarian
[41] = tested on: OVCAR-3 ovarian
[42] = tested on: OVCAR-4 ovarian
[43] = tested on: OVCAR-5 ovarian
[44] = tested on: OVCAR-8 ovarian
[45] = tested on: PC-3 prostate
[46] = tested on: RPMI-8226 leukemia
[47] = tested on: RXF 393 renal
[48] = tested on: SF-268 CNS
[49] = tested on: SF-295 CNS
[50] = tested on: SF-539 CNS
[51] = tested on: SK-MEL-2 melanoma
[52] = tested on: SK-MEL-28 melanoma
[53] = tested on: SK-MEL-5 melanoma
[54] = tested on: SK-OV-3 ovarian
[55] = tested on: SN12C renal
[56] = tested on: SNB-19 CNS
[57] = tested on: SNB-75 CNS
[58] = tested on: SNB-78 CNS
[59] = tested on: SR leukemia
[60] = tested on: SW-620 colon
[61] = tested on: T-47D breast
[62] = tested on: TK-10 renal
[63] = tested on: U251 CNS
[64] = tested on: UACC-257 melanoma
[65] = tested on: UACC-62 melanoma
[66] = tested on: UO-31 renal
[67] = tested on: XF 498 CNS

## O=C1C(CN2CCCCC2)CCCC1CN1CCCCC1 (configuration not stated)
[1]
  TGI: 22.3 µM and 15 µM
[2]
  TGI: > 100 µM
[3]
  TGI: > 100 µM
[4]
  TGI: 34 µM and 39.3 µM
[5]
  TGI: 30.9 µM
[6]
  GI50: 13 µM and 5.2 µM
  TGI: 26.2 µM and 11.9 µM
[7]
  GI50: 4.86 µM and 2.41 µM
  TGI: 20.6 µM and > 22.6 µM
[8]
  GI50: 25.5 µM and 8.41 µM
  TGI: > 56.9 µM and 16.1 µM
[9]
  TGI: 31.5 µM and 32 µM
[10]
  GI50: 7.38 µM and 27.4 µM
  TGI: 18.7 µM and 79.4 µM
[11]
  TGI: > 100 µM
[12]
  GI50: 0.059 µM
  TGI: 32.2 µM
[13]
  TGI: 38 µM and 39.8 µM
[14]
  TGI: > 100 µM
[15]
  TGI: 27.6 µM and 29 µM
[16]
  TGI: 28.2 µM and 42.8 µM
[17]
  GI50: 19 µM and 8.6 µM
  TGI: 39.3 µM and > 63.1 µM
[18]
  TGI: 28.5 µM and 30.9 µM
[19]
  TGI: > 100 µM
[20]
  GI50: 7.52 µM and 2.89 µM
  TGI: 18.4 µM and 5.93 µM
[21]
  TGI: 72.3 µM
[22]
  TGI: 34.2 µM and 40.8 µM
[23]
  TGI: > 100 µM
[24]
  GI50: 8.04 µM and 3.15 µM
  TGI: 15.8 µM and 25.5 µM
[25]
  TGI: > 100 µM
[26]
  TGI: 17.8 µM and 22.8 µM
[27]
  TGI: > 57.2 µM
[28]
  TGI: 29.3 µM and 28.9 µM
[29]
  TGI: > 52.2 µM and 39.5 µM
[30]
  GI50: > 43 µM and 19.8 µM
  TGI: > 57.1 µM and 36.7 µM
[31]
  TGI: 11.4 µM and 14.8 µM
[32]
  TGI: 7.87 µM
[33]
  TGI: 34.7 µM
[34]
  TGI: 30.9 µM
[35]
  TGI: 29.7 µM
[36]
  GI50: 10.9 µM and 4.27 µM
  TGI: > 65.6 µM and 12 µM
[37]
  TGI: > 100 µM
[38]
  TGI: > 68.4 µM and 55.8 µM
[39]
  GI50: > 100 µM
  TGI: > 100 µM
[40]
  TGI: 55.9 µM
[41]
  TGI: 32.1 µM and 34 µM
[42]
  TGI: 22.2 µM
[43]
  TGI: > 100 µM
[44]
  TGI: 21 µM and 39.3 µM
[45]
  TGI: 29.8 µM
[46]
  TGI: 13.1 µM
[47]
  TGI: 31.6 µM
[48]
  GI50: > 89.2 µM
  TGI: > 100 µM
[49]
  TGI: > 100 µM
[50]
  TGI: > 57.5 µM and 47.8 µM
[51]
  GI50: > 83.2 µM and 31.9 µM
  TGI: > 100 µM and 48.4 µM
[52]
  TGI: 18.4 µM and 31.7 µM
[53]
  TGI: > 31.6 µM and 47.6 µM
[54]
  TGI: > 100 µM
[55]
  TGI: > 31.6 µM and 48.7 µM
[56]
  TGI: > 100 µM
[57]
  GI50: > 100 µM and 46.2 µM
  TGI: > 100 µM
[58]
  TGI: 47.6 µM and 44.8 µM
[59]
  TGI: 43.9 µM and 47.2 µM
[60]
  TGI: 24.6 µM and 13.7 µM
[61]
  TGI: 3.74 µM
[62]
  GI50: > 100 µM and 12.4 µM
  TGI: > 100 µM and 28.4 µM
[63]
  TGI: > 100 µM
[64]
  TGI: 57.9 µM and 31.7 µM
[65]
  TGI: > 67.9 µM
[66]
  TGI: > 68.4 µM
[67]
  TGI: 33.4 µM and 39.8 µM
